The NIST ThermoML archive (doi:10.1016/j.tca.2014.07.025)

Key:
[1] = mn = molality of the nth substance listed, in mol/kg; conditions: 100 kPa, Liquid; for speed of sound: Frequency=3 MHz, Sing-around technique in a fixed-path interferometer; for mass density: Vibrating tube method
[2] = 100 kPa, Liquid; for speed of sound: Frequency=3 MHz, Sing-around technique in a fixed-path interferometer; for mass density: Vibrating tube method

CC1(C)S[C@@H]2[C@H](NC(=O)[C@H](N)c3ccc(O)cc3)C(=O)N2[C@H]1C(=O)O [amoxicillin] + O
[1]
Conditions	mass density, 305.15 K [kg/m3]	mass density, 310.15 K [kg/m3]	mass density, 315.15 K [kg/m3]	speed of sound, 305.15 K [m/s]	speed of sound, 310.15 K [m/s]	speed of sound, 315.15 K [m/s]
m1 = 0.0005	995.743	994.045	992.153	1514.7	1524.6	1532.9
m1 = 0.002	995.924	994.23	992.334	1515	1524.8	1533.2
m1 = 0.0035	996.115	994.412	992.522	1514.4	1524.3	1532.5

CC(C)C[C@H](NC(=O)CN)C(=O)O [glycyl-L-leucine] + O
[1]
Conditions	mass density, 305.15 K [kg/m3]	mass density, 310.15 K [kg/m3]	mass density, 315.15 K [kg/m3]	speed of sound, 305.15 K [m/s]	speed of sound, 310.15 K [m/s]	speed of sound, 315.15 K [m/s]
m1 = 0.00196	995.189	993.501	991.607	1514	1523.9	1532.4
m1 = 0.00595	995.39	993.701	991.806	1514.8	1524.6	1533
m1 = 0.00811	995.498	993.809	991.913	1515	1524.9	1533.1
m1 = 0.01008	995.597	993.908	992.01	1515.2	1525.2	1533.3
m1 = 0.02014	996.102	994.41	992.508	1516.4	1526.2	1534.5
m1 = 0.05085	997.635	995.935	994.019	1521.5	1531.4	1539.2
m1 = 0.1002	1000.07	998.358	996.42	1528.8	1538.2	1545.9
m1 = 0.1991	1004.86	1003.12	1001.14	1540.2	1548.9	1555.8
m1 = 0.299	1009.55	1007.79	1005.77	1552	1560	1566.6

O [water]
[2]
Conditions	mass density [kg/m3]	speed of sound [m/s]
305.15 K	995.09	1513.5
310.15 K	993.403	1523.5
315.15 K	991.51	1532.2
